In paper PMC8286840, “Identifying SARS-CoV-2 antiviral compounds by screening for small molecule inhibitors of Nsp3 papain-like protease” (Biochemical Journal, 2021):
Structures can show the parent of a compound that is named as a salt. Where two headings read alike, the source gives them in different places.

Experiments:
[1] = molecular target: T1, SARS-CoV-2 PLpro (nsp3 1564–1878) (Severe acute respiratory syndrome coronavirus 2, UniProt P0DTD1); experiment: biochemical; set-up: FRET-quenched peptide (Pro3) cleavage by PLpro, 10 min pre-incubation, slope over 20 min, normalised to no-compound control; conditions: read-out: % of control remaining
[2] = molecular target: T1, SARS-CoV-2 PLpro (nsp3 1564–1878); experiment: biochemical; set-up: FRET-quenched peptide (Pro3) cleavage by PLpro, 10 min pre-incubation, slope over 20 min, normalised to no-compound control; conditions: read-out: % of control remaining; remark: listed apart in the source

Nc1nc2[nH]cc(CCc3ccc(C(=O)N[C@@H](CCC(=O)O)C(=O)O)cc3)c2c(=O)[nH]1 [Pemetrexed (disodium hemipenta hydrate)]
remaining activity at 3.75 µM ([1]; Well no.=7604, high concentration screen): 95.6%
remaining activity at 1.25 µM ([2]; Well no.=7604, low concentration screen): 95.1%

COc1ccc(/C=C/C(=O)c2c(O)cc(OC)cc2OC)cc1 [Flavokawain A]
remaining activity at 3.75 µM ([1]; Well no.=3607, high concentration screen): 105%
remaining activity at 1.25 µM ([2]; Well no.=3607, low concentration screen): 104%

Oc1ccc2c3c1O[C@H]1c4oc5ccccc5c4C[C@@]4(O)[C@@H](C2)N(CC2CC2)CC[C@]314 [Naltriben methanesulfonate]
remaining activity at 3.75 µM ([1]; Well no.=1036, high concentration screen): 97.4%
remaining activity at 1.25 µM ([2]; Well no.=1036, low concentration screen): 92.8%

O=C(Nc1cccc(C(=O)Nc2ccc(S(=O)(=O)O)c3cc(S(=O)(=O)O)cc(S(=O)(=O)O)c23)c1)Nc1cccc(C(=O)Nc2ccc(S(=O)(=O)O)c3cc(S(=O)(=O)O)cc(S(=O)(=O)O)c23)c1 [NF 023]
remaining activity at 3.75 µM ([1]; Well no.=813, high concentration screen): 89.2%
remaining activity at 1.25 µM ([2]; Well no.=813, low concentration screen): 88.1%

CCNC(=O)[C@@H]1CCCN1C(=O)[C@H](CCCNC(=N)N)NC(=O)[C@H](CC(C)C)NC(=O)[C@@H](CC(C)C)NC(=O)[C@H](Cc1ccc(O)cc1)NC(=O)[C@H](CO)NC(=O)[C@H](Cc1c[nH]c2ccccc12)NC(=O)[C@H](Cc1c[nH]cn1)NC(=O)[C@@H]1CCC(=O)N1 [Leuprolide (Acetate)]
remaining activity at 3.75 µM ([1]; Well no.=6469, high concentration screen): 104%
remaining activity at 1.25 µM ([2]; Well no.=6469, low concentration screen): 104%

Cc1nccn1CCC(C(N)=O)(c1ccccc1)c1ccccc1 [Imidafenacin]
remaining activity at 3.75 µM ([1]; Well no.=6377, high concentration screen): 97.6%
remaining activity at 1.25 µM ([2]; Well no.=6377, low concentration screen): 102%

O=C(O)/C=C(\CC(=O)O)C(=O)O [trans-Aconitic acid]
remaining activity at 3.75 µM ([1]; Well no.=6827, high concentration screen): 95.7%
remaining activity at 1.25 µM ([2]; Well no.=6827, low concentration screen): 94.2%

CC[C@H](C)[C@H](N)C(=O)N1CCC[C@H]1C(=O)N[C@H](C(=O)O)[C@@H](C)CC [Diprotin A (TFA)]
remaining activity at 3.75 µM ([1]; Well no.=8464, high concentration screen): 101%
remaining activity at 1.25 µM ([2]; Well no.=8464, low concentration screen): 104%

O=C(O)/C=C/c1cnc[nH]1 [4-Imidazoleacrylic acid]
remaining activity at 3.75 µM ([1]; Well no.=1428, high concentration screen): 98.1%
remaining activity at 1.25 µM ([2]; Well no.=1428, low concentration screen): 95.1%

c1ccc2c(CCNc3ccc(Nc4ccncc4)cc3)c[nH]c2c1 [Serdemetan]
remaining activity at 3.75 µM ([1]; Well no.=6730, high concentration screen): 101%
remaining activity at 1.25 µM ([2]; Well no.=6730, low concentration screen): 97.7%

CCC/N=C1\S/C(=C\c2ccc(OC[C@H](O)CO)c(Cl)c2)C(=O)N1c1ccccc1C [Ponesimod]
remaining activity at 3.75 µM ([1]; Well no.=8001, high concentration screen): 102%
remaining activity at 1.25 µM ([2]; Well no.=8001, low concentration screen): 106%

CC1(C)[C@@H](O)C[C@H]2[C@](C)(O)[C@@H]3CC[C@@H]4[C@@H](O)[C@@]3(C[C@@H](O)[C@@]21O)C[C@@]4(C)O [Grayanotoxin III]
remaining activity at 3.75 µM [1]: 104%
remaining activity at 1.25 µM [2]: 103%

COc1ccc(NS(=O)(=O)c2sc3ccc(Cl)cc3c2C)cc1N1CCNCC1 [SB 271046]
remaining activity at 3.75 µM ([1]; Well no.=4934, high concentration screen): 92.4%
remaining activity at 1.25 µM ([2]; Well no.=4934, low concentration screen): 94.2%

CC(C)c1nn(-c2c(Cl)cccc2Cl)c2nc(Cc3ccc(OCCO)cc3)[nH]c(=O)c12 [Cdk/Crk Inhibitor]
remaining activity at 3.75 µM ([1]; Well no.=2420, high concentration screen): 105%
remaining activity at 1.25 µM ([2]; Well no.=2420, low concentration screen): 105%

CN1CCC(=C2c3ccccc3C=Cc3ccccc32)CC1 [Cyproheptadine]
remaining activity at 3.75 µM ([1]; Well no.=2300, high concentration screen): 98.2%
remaining activity at 1.25 µM ([2]; Well no.=2300, low concentration screen): 97.2%

O=c1ccn([C@@H]2O[C@H](COP(=O)(O)OP(=O)(O)O)[C@@H](O)[C@H]2O)c(=O)[nH]1 [Uridine 5'-diphosphate sodium]
remaining activity at 3.75 µM ([1]; Well no.=1188, high concentration screen): 104%
remaining activity at 1.25 µM ([2]; Well no.=1188, low concentration screen): 104%

O=C1CCC(c2ccc(-n3ccnc3)cc2)=NN1 [Imazodan]
remaining activity at 3.75 µM ([1]; Well no.=764, high concentration screen): 97.7%
remaining activity at 1.25 µM ([2]; Well no.=764, low concentration screen): 97.3%

Cc1cn([C@H]2C[C@H](O)[C@@H](CO)O2)c(=O)[nH]c1=O [Thymidine]
remaining activity at 3.75 µM ([1]; Well no.=7349, high concentration screen): 106%
remaining activity at 3.75 µM ([1]; Well no.=7770, high concentration screen): 97.4%
remaining activity at 1.25 µM ([2]; Well no.=7349, low concentration screen): 104%
remaining activity at 1.25 µM ([2]; Well no.=7770, low concentration screen): 94.3%

CC(N)(C(=O)O)c1ccc(C(=O)O)cc1 (racemic) [(RS)-MCPG]
remaining activity at 3.75 µM ([1]; Well no.=8575, high concentration screen): 102%
remaining activity at 1.25 µM ([2]; Well no.=8575, low concentration screen): 109%

CCCCCCCCCCCCCCCC(=O)NCC(COP(=O)([O-])OCC[N+](C)(C)C)OC (racemic) [rac-2-Methoxy-3-hexadecanamido-1-propylphosphocholine]
remaining activity at 3.75 µM ([1]; Well no.=1078, high concentration screen): 96.5%
remaining activity at 1.25 µM ([2]; Well no.=1078, low concentration screen): 97.5%

CCOC(=O)[C@@H](N)CCC(=O)N[C@@H](CSCc1ccccc1)C(=O)N[C@@H](C(=O)OCC)c1ccccc1 [Ezatiostat]
remaining activity at 3.75 µM ([1]; Well no.=8366, high concentration screen): 90.3%
remaining activity at 1.25 µM ([2]; Well no.=8366, low concentration screen): 91%

COc1cc(C(N)=O)ccc1NC(=O)[C@@H]1N[C@@H](CC(C)(C)C)[C@@]2(C(=O)Nc3cc(Cl)ccc32)[C@H]1c1cccc(Cl)c1F [RO8994]
remaining activity at 3.75 µM ([1]; Well no.=7108, high concentration screen): 89.6%
remaining activity at 1.25 µM ([2]; Well no.=7108, low concentration screen): 92.4%

CCCCc1ncc(/C=C(\Cc2cccs2)C(=O)O)n1Cc1ccc(C(=O)O)cc1 [Eprosartan mesylate]
remaining activity at 3.75 µM ([1]; Well no.=1882, high concentration screen): 99.1%
remaining activity at 1.25 µM ([2]; Well no.=1882, low concentration screen): 98.4%

C[C@]12CCC(=O)C(O)=C1CC[C@@H]1[C@@H]2CC[C@]2(C)C(=O)CC[C@@H]12 [4-Androsten-4-ol-3,17-dione]
remaining activity at 3.75 µM ([1]; Well no.=305, high concentration screen): 93.5%
remaining activity at 1.25 µM ([2]; Well no.=305, low concentration screen): 96.5%

CCCCC/C=C\C[C@@H](O)/C=C/C=C\CCC(=O)O [Tetranor-12(R)-HETE]
remaining activity at 3.75 µM ([1]; Well no.=4563, high concentration screen): 97.6%
remaining activity at 1.25 µM ([2]; Well no.=4563, low concentration screen): 97%

N[C@H](CO)C(=O)O [(R)-Serine]
remaining activity at 3.75 µM ([1]; Well no.=7739, high concentration screen): 100%
remaining activity at 1.25 µM ([2]; Well no.=7739, low concentration screen): 99.9%

O=C(COCC(=O)Nc1ccc(Cl)cc1C(=O)O)Nc1cccc(-c2ccoc2)c1 [TM5441]
remaining activity at 3.75 µM ([1]; Well no.=6540, high concentration screen): 105%
remaining activity at 1.25 µM ([2]; Well no.=6540, low concentration screen): 109%

O=C1Cc2cc(CCN3CCN(c4nsc5ccccc45)CC3)c(Cl)cc2N1 [Ziprasidone (hydrochloride monohydrate)]
remaining activity at 3.75 µM ([1]; Well no.=6563, high concentration screen): 90.8%
remaining activity at 1.25 µM ([2]; Well no.=6563, low concentration screen): 92.6%

COc1cccc(-n2c(=O)[nH]c3cc(Cl)n(-c4ccc(-c5cccc(OC)c5O)cc4)c3c2=O)c1 [GSK621]
remaining activity at 3.75 µM ([1]; Well no.=8626, high concentration screen): 99.7%
remaining activity at 1.25 µM ([2]; Well no.=8626, low concentration screen): 101%

CCCCC[C@H](O)/C=C/[C@@H]1[C@@H](C/C=C\CCCC(=O)O)[C@@H](O)C[C@H]1O [Dinoprost]
remaining activity at 3.75 µM ([1]; Well no.=1667, high concentration screen): 101%
remaining activity at 1.25 µM ([2]; Well no.=1667, low concentration screen): 99.9%

CN(C)CCc1c[nH]c2ccc(Cn3cncn3)cc12 [Rizatriptan (benzoate)]
remaining activity at 3.75 µM ([1]; Well no.=6174, high concentration screen): 89.9%
remaining activity at 1.25 µM ([2]; Well no.=6174, low concentration screen): 93.4%

COc1cc2c[n+](C)c3c4cc5c(cc4ccc3c2cc1OC)OCO5 [2,3-dimethoxy-12-methyl[1,3]benzodioxolo[5,6-c]phenanthridin-12-ium chloride]
remaining activity at 3.75 µM ([1]; Well no.=5862, high concentration screen): 98.5%
remaining activity at 1.25 µM ([2]; Well no.=5862, low concentration screen): 100%

CC(C)C(=O)c1c(C(C)C)nn2ccccc12 [Ibudilast]
remaining activity at 3.75 µM ([1]; Well no.=572, high concentration screen): 96.9%
remaining activity at 3.75 µM ([1]; Well no.=1581, high concentration screen): 90%
remaining activity at 1.25 µM ([2]; Well no.=572, low concentration screen): 98.8%
remaining activity at 1.25 µM ([2]; Well no.=1581, low concentration screen): 89.2%
